Reference: patent publication US11964980B2, “Crystalline forms of (S)-1-(4-fluorophenyl)-1-(2-(4-(6-(1-methyl-1H-pyrazol-4-yl)pyrrolo[2,1- f][1,2,4]triazin-4-yl)piperazinyl)-pyrimidin-5-yl)ethan-1-amine and methods of making” (Blueprint Medicines Corporation, priority 2019, dated 2024)

Legend:
KIT D816V = KIT D816V (Homo sapiens, UniProt P10721, D816V); test: Activity in vitro against KIT D816V
PDGFRA D842V-mutant GIST = test: Phase 1 dose escalation and expansion study in advanced GIST: efficacy (mRECIST 1.1, central radiology); type: in vivo, human; settings: for OS (estimated): median follow up 15.9 months
From the text: Patients: Eligibility criteria for the phase 1 dose escalation and expansion study included provision of written informed consent, age ≥18 years, Eastern Cooperative Oncology Group performance status ≤2, and adequate end-organ function. The dose escalation part of the trial was open to patients with refractory solid tumors or unresectable GIST; however, only GIST patients were enrolled. Patients with unresectable GIST who had one or more measurable target lesion per modified Response Evaluation Criteria in Solid Tumors version 1.1 (mRECIST 1.1) were eligible for the dose expansion, which included three cohorts: patients with PDGFRA D842V-mutant GIST regardless of prior therapy; patients who progressed following imatinib and one or more other kinase inhibitors; and patients who received only imatinib.
Study Design: The primary endpoints of the phase 1, open-label dose escalation/expansion study were safety and tolerability of Compound (I) administered orally once daily and overall response rate (ORR) for each expansion cohort. Part 1 followed a 3+3 dose-escalation design, starting at 30 mg and continuing until the maximum tolerated dose (MTD) or the recommended phase 2 dose (RP2D) below the MTD was determined. Intrapatient dose escalation was permitted, and additional accrual was allowed to dose levels previously determined tolerable. The part 1 MTD was used to initiate the part 2 expansion. Treatment with Compound (I) was continued until precluded by toxicity, noncompliance, withdrawal of consent, physician decision, progressive disease, death, or closure of the study.
Safety and Response Assessments: Adverse events were evaluated at each visit from the start of study drug administration up to 30 days after the final dose of Compound (I) and were graded according to the National Cancer Institute Common Terminology Criteria for Adverse Events (NCI CTCAE) version 4.03. All patients underwent tumor imaging for response assessment via computed tomography (CT) or magnetic resonance imaging (MRI) at screening, every two cycles through and including cycle 13, then every three months until progression or discontinuation. Target and non-target lesions were identified and assessed per mRECIST 1.1 for GIST by independent, blinded, central radiographic review (BioTelemetry, Inc., Rockville, MD, USA).
Statistical Methods: The MTD, defined as the highest dose level with ≤1 cycle 1 dose limiting toxicity in six patients, was determined from all part 1 patients who completed cycle 1 and received at least 75% of their prescribed doses or experienced a dose limiting toxicity (DLT) (dose-determining population). The efficacy population included patients who received at least one dose of Compound (I) enrolled in part 1 or part 2 with PDGFRα D842V-mutant GIST who had one or more target lesions and at least one post-baseline disease assessment by central radiology. For the primary endpoint of partial or complete response, a sample size of 31 patients allowed testing the null hypothesis of overall response rate ≤10% versus the alternative hypothesis of objective response rate ≥35% with 90% power, assuming a 2-sided type I error rate of 0.05. Kaplan-Meier methods were used to estimate duration of response, PFS and OS, including the median with 95% confidence intervals. Estimated duration of response, PFS, and OS rates at 3-, 6-, and 12-months were also calculated.

[1] = tested on: tyrosine kinase inhibitor (TKI)-resistant mastocytoma model; test: TKI-resistant mastocytoma model in vivo
[2] = tested on: patients with unresectable GIST; test: Phase 1 dose escalation and expansion study in advanced GIST: safety; type: in vivo
Description: Patients: Eligibility criteria for the phase 1 dose escalation and expansion study included provision of written informed consent, age ≥18 years, Eastern Cooperative Oncology Group performance status ≤2, and adequate end-organ function. The dose escalation part of the trial was open to patients with refractory solid tumors or unresectable GIST; however, only GIST patients were enrolled.
Part 1 followed a 3+3 dose-escalation design, starting at 30 mg and continuing until the maximum tolerated dose (MTD) or the recommended phase 2 dose (RP2D) below the MTD was determined. Intrapatient dose escalation was permitted, and additional accrual was allowed to dose levels previously determined tolerable. The part 1 MTD was used to initiate the part 2 expansion.
All patients underwent tumor imaging for response assessment via computed tomography (CT) or magnetic resonance imaging (MRI) at screening, every two cycles through and including cycle 13, then every three months until progression or discontinuation. Target and non-target lesions were identified and assessed per mRECIST 1.1 for GIST by independent, blinded, central radiographic review (BioTelemetry, Inc., Rockville, MD, USA). […]

Sequence of KIT D816V (P10721 26-976 D816V): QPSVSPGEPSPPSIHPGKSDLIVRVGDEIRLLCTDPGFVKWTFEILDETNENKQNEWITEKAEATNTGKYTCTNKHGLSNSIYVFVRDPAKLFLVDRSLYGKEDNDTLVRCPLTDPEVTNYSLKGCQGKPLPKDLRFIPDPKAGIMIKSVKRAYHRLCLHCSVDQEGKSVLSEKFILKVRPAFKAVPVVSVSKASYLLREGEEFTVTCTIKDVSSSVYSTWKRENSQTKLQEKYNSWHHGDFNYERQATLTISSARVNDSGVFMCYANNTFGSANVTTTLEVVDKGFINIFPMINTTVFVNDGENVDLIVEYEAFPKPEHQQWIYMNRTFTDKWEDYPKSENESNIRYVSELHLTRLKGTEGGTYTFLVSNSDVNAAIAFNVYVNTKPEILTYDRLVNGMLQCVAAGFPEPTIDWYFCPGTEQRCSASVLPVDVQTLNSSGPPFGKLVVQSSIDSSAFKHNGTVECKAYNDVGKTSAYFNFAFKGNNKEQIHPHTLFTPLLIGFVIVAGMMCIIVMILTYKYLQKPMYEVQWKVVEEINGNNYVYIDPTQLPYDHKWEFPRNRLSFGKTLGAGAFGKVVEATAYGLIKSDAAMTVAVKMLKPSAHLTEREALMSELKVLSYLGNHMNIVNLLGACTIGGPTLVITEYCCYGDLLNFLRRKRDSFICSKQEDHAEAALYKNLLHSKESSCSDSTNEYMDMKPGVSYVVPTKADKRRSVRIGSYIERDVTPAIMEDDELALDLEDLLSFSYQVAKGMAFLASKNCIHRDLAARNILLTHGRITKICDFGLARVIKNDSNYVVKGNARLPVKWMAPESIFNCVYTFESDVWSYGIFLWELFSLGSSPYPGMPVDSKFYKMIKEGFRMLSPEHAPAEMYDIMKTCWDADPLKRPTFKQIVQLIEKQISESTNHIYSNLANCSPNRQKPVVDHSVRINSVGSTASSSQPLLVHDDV

Cn1cc(-c2cc3c(N4CCN(c5ncc([C@@](C)(N)c6ccc(F)cc6)cn5)CC4)ncnn3c2)cn1 [Compound (I), (S)-1-(4-fluorophenyl)-1-(2-(4-(6-(1-methyl-1H-pyrazol-4-yl)pyrrolo[2,1-f][1,2,4]triazin-4-yl)piperazin-1-yl)pyrimidin-5-yl)ethan-1-amine]
Activity in vitro against KIT D816V (KIT D816V): potent and selective activity
CBR (CR + PR + SD) (PDGFRA D842V-mutant GIST; 300 mg (n = 28)): (96.4) %
CBR (CR + PR + SD), number of patients (PDGFRA D842V-mutant GIST; 300 mg (n = 28)): 27 n
CR (PDGFRA D842V-mutant GIST; 300 mg (n = 28)): (3.6) %
CR, number of patients (PDGFRA D842V-mutant GIST; 300 mg (n = 28)): 1 n
ORR (CR + PR), number of patients (PDGFRA D842V-mutant GIST; 300 mg (n = 28)): 26 n
PD, number of patients (PDGFRA D842V-mutant GIST; 300 mg (n = 28)): 0 n
PR (PDGFRA D842V-mutant GIST; 300 mg (n = 28)): (89.2) %
PR, number of patients (PDGFRA D842V-mutant GIST; 300 mg (n = 28)): 25 n
Progression free survival rate (PDGFRA D842V-mutant GIST; 3-month): 100%
Progression free survival rate (PDGFRA D842V-mutant GIST; 6-month): 94%
OS (estimated) (PDGFRA D842V-mutant GIST; 6 months): 100%
Progression free survival rate (PDGFRA D842V-mutant GIST; 12-month): 90%
OS (estimated) (PDGFRA D842V-mutant GIST; 12 months): 91%
OS (estimated) (PDGFRA D842V-mutant GIST; 24 months): 81%
CBR (CR + PR + SD), number of patients (PDGFRA D842V-mutant GIST; All Doses (n = 56)): 53 n
CR, number of patients (PDGFRA D842V-mutant GIST; All Doses (n = 56)): 5 n
ORR (CR + PR), number of patients (PDGFRA D842V-mutant GIST; All Doses (n = 56)): 49 n
PD, number of patients (PDGFRA D842V-mutant GIST; All Doses (n = 56)): 0 n
PR, number of patients (PDGFRA D842V-mutant GIST; All Doses (n = 56)): 44 n
Median PFS (PDGFRA D842V-mutant GIST; all dose levels): not reached
Median duration of response (PDGFRA D842V-mutant GIST; all dose levels): not reached
12-month duration of response (PDGFRA D842V-mutant GIST; all dose levels, Kaplan-Meier): 70%
Growth inhibition in TKI-resistant mastocytoma model [1]: robust growth inhibition
Decreased appetite, Grade 1/2 event ([2]; 300 mg dose): 38%
Diarrhea, Grade 1/2 event ([2]; 300 mg dose): 41%
Fatigue, Grade 1/2 event ([2]; 300 mg dose): 38%
Nausea, Grade 1/2 event ([2]; 300 mg dose): 69%
Patients with cycle 1 dose-limiting toxicities ([2]; 600 mg once daily, Part 1): Two
Patients requiring at least one dose reduction or treatment interruption ([2]; 69 patients): 84%
Discontinuation for adverse events considered related to Compound (I) ([2]; 82 patients enrolled): 12%
Reason for treatment discontinuation: adverse events ([2]; 82 patients enrolled): 34%
Reason for treatment discontinuation: disease progression ([2]; 82 patients enrolled): 59%
Treatment-related deaths ([2]; 82 patients enrolled): no treatment-related deaths
Patients who discontinued treatment ([2]; 82 patients enrolled (44 patients)): 54%
Fatigue, most common event ([2]; 400-mg dose): 47%
Nausea, most common event ([2]; 400-mg dose): 71%
Periorbital edema, most common event ([2]; 400-mg dose): 47%
Vomiting, most common event ([2]; 400-mg dose): 47%
Discontinuation for adverse events considered related to Compound (I) ([2]; PDGFRA D842V population): 14%
Reason for treatment discontinuation: adverse events ([2]; PDGFRA D842V population): 63%
Reason for treatment discontinuation: disease progression ([2]; PDGFRA D842V population): 21%
Patients who discontinued treatment ([2]; PDGFRA D842V population (19/56)): 34%
Events resulting in treatment discontinuation, patients ([2]; as printed after the 300 mg Grade 1/2 events (2 patients)): 2%
Events primarily Grade 1, patients ([2]; as printed after the 300 mg Grade 1/2 events (19 patients)): 23%
Intracranial hemorrhage ([2]; both events Grade 3, non-fatal): 2 patients
Cycle-1 dose limiting toxicity ([2]; doses of 30 to 400 mg per day, Part 1): No cycle-1 dose limiting toxicity
Maximum tolerated dose ([2]; once daily, oral): 400 mg
Recommended phase 2 dose ([2]; once daily, oral, GIST): 300 mg
Anemia, Grade 3/4 event ([2]; regardless of dose): 30%
Grade 3/4 events, patients ([2]; regardless of dose (47 patients)): 57%
Grade of most treatment-related adverse events ([2]; safety population): grade 1 or 2
Encephalopathy ([2]; safety population (2 patients)): 2%
Confusional state ([2]; safety population (7 patients)): 9%
Cognitive disorder ([2]; safety population (8 patients)): 10%
Cognitive effects, patients ([2]; safety population (33 patients)): 40%
Memory impairment ([2]; safety population (n=25)): 30%
